Species on record: Rattus norvegicus
Assay type: toxicity, organism-based, Sprague-Dawley
Conditions: in vivo, po, route oral GAVAGE, vehicle 100 % SALINE; for ABSOLUTE EOSINOPHIL / ABSOLUTE LYMPHOCYTE / ABSOLUTE MONOCYTE / ABSOLUTE SEGMENTED NEUTROPHIL / BASOPHIL / EOSINOPHIL / ERYTHROCYTE COUNT / HEMATOCRIT / HEMOGLOBIN / LEUKOCYTE COUNT / LYMPHOCYTE / MEAN CORPUSCULAR HEMOGLOBIN / MEAN CORPUSCULAR HEMOGLOBIN CONCENTRATION / MEAN CORPUSCULAR VOLUME / MONOCYTE / NEUTROPHIL / NUCLEATED RED BLOOD CELLS / PLATELET COUNT: tissue Blood; for ALANINE AMINOTRANSFERASE / ALBUMIN / ALKALINE PHOSPHATASE / ASPARTATE AMINOTRANSFERASE / BLOOD UREA NITROGEN / CARBON DIOXIDE / CHLORIDE / CHOLESTEROL / CREATINE PHOSPHOKINASE / CREATININE / GLUCOSE / LACTATE DEHYDROGENASE / LIPASE / PHOSPHORUS / POTASSIUM / SODIUM / TOTAL BILIRUBIN / TOTAL PROTEIN / URIC ACID: tissue Plasma
[1] = 3000 mg/kg, 24 h, dose level Low, time 1 day
[2] = 6000 mg/kg, 6 h, dose level High, time 0.25 day
[3] = 6000 mg/kg, 24 h, dose level High, time 1 day

Description: DrugMatrix - Regimen: Single

## CCO [ALCOHOL]
[1]
  ABSOLUTE EOSINOPHIL: 30.5 CELLS/uL
  ABSOLUTE LYMPHOCYTE: 9902 CELLS/uL
  ABSOLUTE MONOCYTE: 124.33 CELLS/uL
  ABSOLUTE SEGMENTED NEUTROPHIL: 1059.83 CELLS/uL
  BASOPHIL: 0%
  EOSINOPHIL: 0.17%
  ERYTHROCYTE COUNT: 5.39 x10E6/uL
  HEMATOCRIT: 34.67%
  HEMOGLOBIN: 13.7 G/DL
  LEUKOCYTE COUNT: 11.12 x10E3/uL
  LYMPHOCYTE: 88.17%
  MEAN CORPUSCULAR HEMOGLOBIN: 25.42 pg
  MEAN CORPUSCULAR HEMOGLOBIN CONCENTRATION: 39.57 G/DL
  MEAN CORPUSCULAR VOLUME: 64.33 fL
  MONOCYTE: 1.17%
  NEUTROPHIL: 10.5%
  NUCLEATED RED BLOOD CELLS: 0 /100WBC
  PLATELET COUNT: 1071.33 x10E3/uL
  ALANINE AMINOTRANSFERASE: 70.67 u/L
  ALBUMIN: 4.18 G/DL
  ALKALINE PHOSPHATASE: 267 u/L
  ASPARTATE AMINOTRANSFERASE: 95.33 u/L
  BLOOD UREA NITROGEN: 11.67 mg/dL
  CARBON DIOXIDE: 35.67 mmol/L
  CHLORIDE: 99.5 MEQ/L
  CHOLESTEROL: 80.17 mg/dL
  CREATINE PHOSPHOKINASE: 199.5 u/L
  CREATININE: 0.21 mg/dL
  GLUCOSE: 141 mg/dL
  LACTATE DEHYDROGENASE: 59.67 u/L
  LIPASE: 9.67 u/L
  PHOSPHORUS: 10.12 mg/dL
  POTASSIUM: 5.58 MEQ/L
  SODIUM: 145.6 MEQ/L
  TOTAL BILIRUBIN: 0.17 mg/dL
  TOTAL PROTEIN: 6.1 G/DL
  URIC ACID: 0.45 mg/dL
[2]
  ABSOLUTE EOSINOPHIL: 29.17 CELLS/uL
  ABSOLUTE LYMPHOCYTE: 14165.5 CELLS/uL
  ABSOLUTE MONOCYTE: 257.5 CELLS/uL
  ABSOLUTE SEGMENTED NEUTROPHIL: 3164.5 CELLS/uL
  BASOPHIL: 0%
  EOSINOPHIL: 0.17%
  ERYTHROCYTE COUNT: 5.58 x10E6/uL
  HEMATOCRIT: 37.53%
  HEMOGLOBIN: 13.8 G/DL
  LEUKOCYTE COUNT: 17.62 x10E3/uL
  LYMPHOCYTE: 81.33%
  MEAN CORPUSCULAR HEMOGLOBIN: 24.78 pg
  MEAN CORPUSCULAR HEMOGLOBIN CONCENTRATION: 36.83 G/DL
  MEAN CORPUSCULAR VOLUME: 67.33 fL
  MONOCYTE: 1.33%
  NEUTROPHIL: 17.17%
  NUCLEATED RED BLOOD CELLS: 0 /100WBC
  PLATELET COUNT: 1061.5 x10E3/uL
  ALANINE AMINOTRANSFERASE: 46 u/L
  ALBUMIN: 3.8 G/DL
  ALKALINE PHOSPHATASE: 242.17 u/L
  ASPARTATE AMINOTRANSFERASE: 95.83 u/L
  BLOOD UREA NITROGEN: 12.33 mg/dL
  CARBON DIOXIDE: 17.17 mmol/L
  CHLORIDE: 105.33 MEQ/L
  CHOLESTEROL: 77 mg/dL
  CREATINE PHOSPHOKINASE: 431.5 u/L
  CREATININE: 0.13 mg/dL
  GLUCOSE: 194.5 mg/dL
  LACTATE DEHYDROGENASE: 355.33 u/L
  LIPASE: 9.33 u/L
  PHOSPHORUS: 16.82 mg/dL
  POTASSIUM: 5.94 MEQ/L
  SODIUM: 144.57 MEQ/L
  TOTAL BILIRUBIN: 0.0667 mg/dL
  TOTAL PROTEIN: 5.12 G/DL
  URIC ACID: 2.45 mg/dL
[3]
  ABSOLUTE EOSINOPHIL: 0 CELLS/uL
  ABSOLUTE LYMPHOCYTE: 13674.83 CELLS/uL
  ABSOLUTE MONOCYTE: 258.33 CELLS/uL
  ABSOLUTE SEGMENTED NEUTROPHIL: 983.5 CELLS/uL
  BASOPHIL: 0%
  EOSINOPHIL: 0%
  ERYTHROCYTE COUNT: 5.27 x10E6/uL
  HEMATOCRIT: 34.4%
  HEMOGLOBIN: 13.68 G/DL
  LEUKOCYTE COUNT: 14.92 x10E3/uL
  LYMPHOCYTE: 91.33%
  MEAN CORPUSCULAR HEMOGLOBIN: 26.03 pg
  MEAN CORPUSCULAR HEMOGLOBIN CONCENTRATION: 39.82 G/DL
  MEAN CORPUSCULAR VOLUME: 65.33 fL
  MONOCYTE: 1.83%
  NEUTROPHIL: 6.83%
  NUCLEATED RED BLOOD CELLS: 0 /100WBC
  PLATELET COUNT: 1124.67 x10E3/uL
  ALANINE AMINOTRANSFERASE: 81 u/L
  ALBUMIN: 3.95 G/DL
  ALKALINE PHOSPHATASE: 284.5 u/L
  ASPARTATE AMINOTRANSFERASE: 90.67 u/L
  BLOOD UREA NITROGEN: 11.5 mg/dL
  CARBON DIOXIDE: 32.5 mmol/L
  CHLORIDE: 100.67 MEQ/L
  CHOLESTEROL: 68.83 mg/dL
  CREATINE PHOSPHOKINASE: 207.83 u/L
  CREATININE: 0.3 mg/dL
  GLUCOSE: 144 mg/dL
  LACTATE DEHYDROGENASE: 74 u/L
  LIPASE: 9 u/L
  PHOSPHORUS: 10.7 mg/dL
  POTASSIUM: 5.34 MEQ/L
  SODIUM: 145 MEQ/L
  TOTAL BILIRUBIN: 0.15 mg/dL
  TOTAL PROTEIN: 5.78 G/DL
  URIC ACID: 0.53 mg/dL

Source: ChEMBL document CHEMBL3885881, “DrugMatrix”
